In patent US6914045B2, “Glycopeptide antibiotics” (Wyeth Holdings Corporation, priority 2001, dated 2005):
In brackets after ≈: the same amount, converted by molar mass.

Legend:
[1] = system: Staphylococcus aureus-SMITH (GC 4543); assay: acute lethal infection in mice; format: in vivo; conditions: acute lethal infection, female CD-1 mice, intraperitoneal challenge, intravenous 30 min. after infection, 7 day survival
In short: (§1)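 ED50 from 7 day survival ratios pooled over 3 separate tests. Female CD-1 mice, 20+/−2 gm, ip bacterial challenge (trypticase soy broth or hog gastric mucin) lethal to untreated controls in 24-48 hr; iv dosing 30 min after infection in saline or 5% dextrose, n=5/dose.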

[2] = system: Enterococcus faecalis (GC 6189); assay: acute lethal infection in mice; format: in vivo; conditions: female CD-1 mice, intraperitoneal challenge, intravenous 30 min. after infection, 7 day survival
In short: as §1

[3] = system: Streptococcus pneumoniae (GC 1894); assay: acute lethal infection in mice; format: in vivo; conditions: female CD-1 mice, intraperitoneal challenge, intravenous 30 min. after infection, 7 day survival
In short: as §1

Enterococcus sp. = assay: in vitro antibacterial evaluation, MIC by broth dilution; format: cell-based; conditions: broth dilution, 18 hours at 35° C.
In short: (§2)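 Broth dilution per NCCLS M7-A2 in Mueller-Hinton II medium, inoculum 5×10^5 CFU/mL, antibiotic range 64-0.06 μg/mL. MIC taken as lowest concentration inhibiting growth; Gram-positive panel includes recent clinical isolates resistant to methicillin, penicillin and/or vancomycin.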

Escherichia coli = assay: as above; format: cell-based; conditions: 18 hours at 35° C., strain ATCC 25922
In short: as §2

Streptococcus sp. = assay: as above; format: cell-based; conditions: broth dilution, 18 hours at 35° C.
In short: as §2

Staphylococcus sp. = assay: as above; format: cell-based; conditions: broth dilution, 18 hours at 35° C.
In short: as §2

## CCCC(C)C1OCC2OC(OC3C(CO)OC(Oc4ccc(CC5NC(=O)C(C(C)c6ccccc6)NC(=O)CNC(=O)C(CO)NC(=O)C(C(O)C6CNC(=N)N6C6OC(CO)C(O)C(O)C6O)NC(=O)C(C(O)C6CNC(=N)N6)NC5=O)cc4)C(O)C3O)C(O)C(O)C2O1 (stereo not drawn) [Example 111, Cyclo[glycyl-β-methylphenylalanyl-O-[4-O-[4,6-O-(2-methylpentylidene)hexopyranosyl]-hexopyranosyl]tyrosyl-3-(2-iminoimidazolidin-4-yl)seryl-3-(3-hexopyranosyl-2-iminoimidazolidin-4-yl)serylseryl]]
[1]
  median effective dose (ED50), Staphylococcus aureus-SMITH (GC 4543): 0.14 mg/kg
[2]
  median effective dose (ED50), Enterococcus faecalis (GC 6189): 0.28 mg/kg
[3]
  median effective dose (ED50), Streptococcus pneumoniae (GC 1894): 0.03 mg/kg
Enterococcus sp.; Enterococcus avium (GC 4558)
  MIC Enterococcus avium (GC 4558): 2 µg/mL (≈ 1.45 µM)
Enterococcus sp.; Enterococcus faecalis (ATCC 29212)
  MIC Enterococcus faecalis (ATCC 29212): 2 µg/mL (≈ 1.45 µM)
Enterococcus sp.; Enterococcus faecalis (GC 2242)
  MIC Enterococcus faecalis (GC 2242): 1 µg/mL (≈ 0.726 µM)
Enterococcus sp.; Enterococcus faecalis (GC 4552)
  MIC Enterococcus faecalis (GC 4552): 2 µg/mL (≈ 1.45 µM)
Enterococcus sp.; Enterococcus faecalis (GC 4553)
  MIC Enterococcus faecalis (GC 4553): 2 µg/mL (≈ 1.45 µM)
Enterococcus sp.; Enterococcus faecalis (GC 4554)
  MIC Enterococcus faecalis (GC 4554): 2 µg/mL (≈ 1.45 µM)
Enterococcus sp.; Enterococcus faecium (GC 2243)
  MIC Enterococcus faecium (GC 2243): 1 µg/mL (≈ 0.726 µM)
Enterococcus sp.; Enterococcus faecium (GC 4556)
  MIC Enterococcus faecium (GC 4556): 2 µg/mL (≈ 1.45 µM)
Enterococcus sp.; Enterococcus faecium (GC 4557)
  MIC Enterococcus faecium (GC 4557): 0.5 µg/mL (≈ 0.363 µM)
Enterococcus sp.; strain ATCC 29212
  MIC Enterococcus faecalis (ATCC 29212): 2 µg/mL (≈ 1.45 µM)
Enterococcus sp.; strain GC 2242
  MIC Enterococcus faecalis (GC 2242): 1 µg/mL (≈ 0.726 µM)
Enterococcus sp.; strain GC 2243
  MIC Enterococcus faecium (GC 2243): 1 µg/mL (≈ 0.726 µM)
Enterococcus sp.; strain GC 4552
  MIC Enterococcus faecalis (GC 4552): 2 µg/mL (≈ 1.45 µM)
Enterococcus sp.; strain GC 4553
  MIC Enterococcus faecalis (GC 4553): 2 µg/mL (≈ 1.45 µM)
Enterococcus sp.; strain GC 4554
  MIC Enterococcus faecalis (GC 4554): 2 µg/mL (≈ 1.45 µM)
Enterococcus sp.; strain GC 4556
  MIC Enterococcus faecium (GC 4556): 2 µg/mL (≈ 1.45 µM)
Enterococcus sp.; strain GC 4557
  MIC Enterococcus faecium (GC 4557): 0.5 µg/mL (≈ 0.363 µM)
Enterococcus sp.; strain GC 4558
  MIC Enterococcus avium (GC 4558): 2 µg/mL (≈ 1.45 µM)
Escherichia coli
  MIC Escherichia coli (ATCC 25922): 32 µg/mL (≈ 23.2 µM)
Streptococcus sp.; Streptococcus agalactiae (GC 4564)
  MIC Streptococcus agalactiae (GC 4564): 1 µg/mL (≈ 0.726 µM)
Streptococcus sp.; Streptococcus pneumoniae (GC 4565)
  MIC Streptococcus pneumoniae (GC 4565): 0.5 µg/mL (≈ 0.363 µM)
Streptococcus sp.; Streptococcus pyogenes (ID-3187)
  MIC Streptococcus pyogenes (ID-3187): 0.5 µg/mL (≈ 0.363 µM)
Streptococcus sp.; strain GC 4564
  MIC Streptococcus agalactiae (GC 4564): 1 µg/mL (≈ 0.726 µM)
Streptococcus sp.; strain GC 4565
  MIC Streptococcus pneumoniae (GC 4565): 0.5 µg/mL (≈ 0.363 µM)
Streptococcus sp.; strain ID-3187
  MIC Streptococcus pyogenes (ID-3187): 0.5 µg/mL (≈ 0.363 µM)
Staphylococcus sp.
  MIC Coagulase Negative Staphylococcus (GC 4547): 0.5 µg/mL (≈ 0.363 µM)
  MIC Coagulase Negative Staphylococcus (GC 4548): 1 µg/mL (≈ 0.726 µM)
  MIC Coagulase Negative Staphylococcus (GC 4549): 0.5 µg/mL (≈ 0.363 µM)
  MIC Coagulase Negative Staphylococcus (GC 4551): 1 µg/mL (≈ 0.726 µM)
  MIC Coagulase Negative Staphylococcus (ID-3941): 1 µg/mL (≈ 0.726 µM)
  MIC Staphylococcus aureus (ATCC 29213): 1 µg/mL (≈ 0.726 µM)
  MIC Staphylococcus aureus (GC 1131): 1 µg/mL (≈ 0.726 µM)
  MIC Staphylococcus aureus (GC 4541): 1 µg/mL (≈ 0.726 µM)
  MIC Staphylococcus aureus (GC 4542): 1 µg/mL (≈ 0.726 µM)
  MIC Staphylococcus aureus (GC 4544): 1 µg/mL (≈ 0.726 µM)
  MIC Staphylococcus aureus (GC 4545): 1 µg/mL (≈ 0.726 µM)
  MIC Staphylococcus aureus-SMITH (GC 4543): 1 µg/mL (≈ 0.726 µM)
  MIC Staphylococcus haemolyticus (GC 4546): 1 µg/mL (≈ 0.726 µM)
Staphylococcus sp.; inoculum 5×10^5 CFU/mL, strain GC 1131
  MIC Staphylococcus aureus (GC 1131): 1 µg/mL (≈ 0.726 µM)
Staphylococcus sp.; strain ATCC 29213
  MIC Staphylococcus aureus (ATCC 29213): 1 µg/mL (≈ 0.726 µM)
Staphylococcus sp.; strain GC 4541
  MIC Staphylococcus aureus (GC 4541): 1 µg/mL (≈ 0.726 µM)
Staphylococcus sp.; strain GC 4542
  MIC Staphylococcus aureus (GC 4542): 1 µg/mL (≈ 0.726 µM)
Staphylococcus sp.; strain GC 4544
  MIC Staphylococcus aureus (GC 4544): 1 µg/mL (≈ 0.726 µM)
Staphylococcus sp.; strain GC 4545
  MIC Staphylococcus aureus (GC 4545): 1 µg/mL (≈ 0.726 µM)
Staphylococcus sp.; strain GC 4546
  MIC Staphylococcus haemolyticus (GC 4546): 1 µg/mL (≈ 0.726 µM)
Staphylococcus sp.; strain GC 4547
  MIC Coagulase Negative Staphylococcus (GC 4547): 0.5 µg/mL (≈ 0.363 µM)
Staphylococcus sp.; strain GC 4548
  MIC Coagulase Negative Staphylococcus (GC 4548): 1 µg/mL (≈ 0.726 µM)
Staphylococcus sp.; strain GC 4549
  MIC Coagulase Negative Staphylococcus (GC 4549): 0.5 µg/mL (≈ 0.363 µM)
Staphylococcus sp.; strain GC 4551
  MIC Coagulase Negative Staphylococcus (GC 4551): 1 µg/mL (≈ 0.726 µM)
Staphylococcus sp.; strain ID-3941
  MIC Coagulase Negative Staphylococcus (ID-3941): 1 µg/mL (≈ 0.726 µM)
Staphylococcus sp.; strain SMITH GC 4543
  MIC Staphylococcus aureus-SMITH (GC 4543): 1 µg/mL (≈ 0.726 µM)
